From patent US10793557B2, “Sting agonist compounds” (Merck Sharp & Dohme Corp., priority 2018, dated 2020) come the findings set out here.

Assay [1] addresses T1, full-length HAQ STING (Homo sapiens, UniProt Q86WV6, G230A/H232R/R293Q/R71H).
T1 construct: AviTag (after GG linker) (C); HRV3C cleavage site (after GS linker) (C); HIS8 (C); made in house; host or cells: Trichoplusia ni (Hi-Five) insect cells infected with baculovirus (virus generated and amplified in Sf21 cells); used as a washed membrane preparation
The assay is described as follows: 3H-cGAMP filtration binding assay (HAQ STING). Particulars: competition with tritiated cGAMP, HAQ STING membrane. Put shortly:
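Hi-Five (T. ni) membranes overexpressing the STING variant (2.2 ug/ml working) preincubated with compound 60 min at RT in PBS, then [3H]cGAMP (8 nM working stock) added for 60 min at RT. Bound radioactivity captured on GF/B filters and counted by scintillation; EC50 from 4-parameter fit of control-normalized activity.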

Assay [2] deals with T2, full-length WT STING (Homo sapiens, UniProt Q86WV6, H232R).
T2 construct: AviTag (after gg linker) (C); HRV3C cleavage site (after gs linker) (C); HIS8 (C); made in house; host or cells: Trichoplusia ni (Hi-Five) insect cells infected with baculovirus (virus generated and amplified in Sf21 cells); used as a washed membrane preparation
The assay is described as follows: 3H-cGAMP filtration binding assay (WT STING). Particulars: competition with tritiated cGAMP, WT STING membrane. Put shortly: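 Competitive filtration binding of [3H]cGAMP (16 nM working stock) to T. ni membranes overexpressing full-length WT human STING, 60 min at RT in PBS. Bound radioactivity counted after GF/B filtration; 10-point 1:3 titration, EC50 from 4-parameter fit after control normalisation.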

Assay [3] concerns secretion of interferon-beta from THP1 cells. Description: IFN-β secretion in THP1 cell culture (5 h). The format is cell-based. Particulars: Homo sapiens, THP-1, 5 h, compound at 30 μM, 30 uM cGAMP = 100%, read-out: % Effect at 30 μM relative to 2′3′-cGAMP. Put shortly:
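Thawed THP1 cells (0.8×10^6/mL, RPMI with 0.5% FBS) exposed to compounds 1.5–30000 nM (0.3% DMSO) for 5 h at 37 °C. Supernatant IFN-β quantified by AlphaLISA. Percent effect normalised to 30 uM cGAMP and DMSO controls; EC50 from 4-parameter fit.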

T1 sequence (Q86WV6 with tags, fused parts or gaps R71H/G230A/H232R/R293Q): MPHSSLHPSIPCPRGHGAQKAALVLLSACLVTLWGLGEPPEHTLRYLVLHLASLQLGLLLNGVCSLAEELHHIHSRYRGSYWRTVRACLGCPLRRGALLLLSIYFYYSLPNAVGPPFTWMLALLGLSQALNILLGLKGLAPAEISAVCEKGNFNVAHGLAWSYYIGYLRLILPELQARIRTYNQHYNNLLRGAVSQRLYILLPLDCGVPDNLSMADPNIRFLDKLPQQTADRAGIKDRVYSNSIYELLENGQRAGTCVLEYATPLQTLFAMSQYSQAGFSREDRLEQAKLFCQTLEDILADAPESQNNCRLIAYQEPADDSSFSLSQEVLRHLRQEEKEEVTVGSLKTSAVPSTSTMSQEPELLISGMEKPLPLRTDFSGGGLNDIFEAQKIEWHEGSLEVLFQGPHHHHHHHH
T2 sequence (Q86WV6 with tags, fused parts or gaps H232R): as the sequence (Q86WV6 with tags, fused parts or gaps R71H/G230A/H232R/R293Q) above, with H71R, A230G, Q293R counted along it

The EC50 is the concentration at which the effect is half-maximal. The low end stands for a more potent agent, the high end for a less potent agent. With `COc1cc2sc(C(=O)C[C@H](C)C(=O)O)cc2cc1OCCOc1c(OC)cc2sc(C(=O)C[C@H](C)C(=O)O)cc2c1F` [Example 67, (S)-4-(5-(2-((2-((S)-3-carboxybutanoyl)-4-fluoro-6-methoxybenzo[b]thiophen-5-yl)oxy)ethoxy)-6-methoxybenzo[b]thiophen-2-yl)-2-methyl-4-oxobutanoic acid], the figures for the EC50 in assay [1] and in assay [2] were 40 nM and 45 nM, respectively. Moreover, the activation at 30 µM in assay [3] came to 92%.
Take `COc1cc2sc(C(=O)C[C@H](C)C(=O)O)cc2cc1OCCCOc1c(OC)cc2sc(C(=O)C[C@H](C)C(=O)O)cc2c1F` [Example 69, (S)-4-(5-(3-((2-((S)-3-carboxybutanoyl)-4-fluoro-6-methoxybenzo[b]thiophen-5-yl)oxy)propoxy)-6-methoxybenzo[b]thiophen-2-yl)-2-methyl-4-oxobutanoic acid]: the EC50 in assay [1] was 1 nM; in assay [2], 2 nM. Besides, the activation at 30 µM in assay [3] was determined as 46%.
Take `COc1cc2cc(C(=O)C[C@H](C)C(=O)O)sc2cc1OCCCOc1c(OC)cc2sc(C(=O)C[C@H](C)C(=O)O)cc2c1F` [Example 70, (S)-4-(6-(3-((2-((S)-3-carboxybutanoyl)-4-fluoro-6-methoxybenzo[b]thiophen-5-yl)oxy)propoxy)-5-methoxybenzo[b]thiophen-2-yl)-2-methyl-4-oxobutanoic acid]: the concentration giving a half-maximal response (EC50) in assay [1] and in assay [2] was 1 nM throughout. The activation at 30 µM in assay [3] is 47%.
As to `COc1cc2sc(C(=O)C[C@H](C)C(=O)O)cc2cc1OCCCOc1c(OC)cc2sc(C(=O)CC(C)(C)C(=O)O)cc2c1F` [Example 71, (S)-4-(5-(3-((2-(3-carboxybutanoyl)-6-methoxybenzo[b]thiophen-5-yl)oxy)propoxy)-4-fluoro-6-methoxybenzo[b]thiophen-2-yl)-2,2-dimethyl-4-oxobutanoic acid], the EC50 in assay [1] was found to be 3 nM; in assay [2] it was 2 nM. Moreover, the activation at 30 µM in assay [3] was 15%.
For `COc1cc2sc(C(=O)C[C@H](C)C(=O)O)cc2cc1OCCCOc1c(OC)cc2sc(C(=O)CCC(=O)O)cc2c1F` [Example 72, (S)-4-(5-(3-((2-(3-carboxypropanoyl)-4-fluoro-6-methoxybenzo[b]thiophen-5-yl)oxy)propoxy)-6-methoxybenzo[b]thiophen-2-yl)-2-methyl-4-oxobutanoic acid], the results for the EC50 in assay [1] and in assay [2] were 1 nM and 2 nM, respectively. The activation at 30 µM in assay [3] was determined as 77%.
On to `COc1cc2cc(C(=O)C[C@H](C)C(=O)O)sc2cc1OCCCOc1c(OC)cc2sc(C(=O)CCC(=O)O)cc2c1F` [Example 73, (S)-4-(6-(3-((2-(3-carboxypropanoyl)-4-fluoro-6-methoxybenzo[b]thiophen-5-yl)oxy)propoxy)-5-methoxybenzo[b]thiophen-2-yl)-2-methyl-4-oxobutanoic acid], for which the EC50 in assay [1] is 1 nM; in assay [2], 4 nM. The activation at 30 µM in assay [3] amounted to 67%.
In the same order, the values of `COc1cc2sc(C(=O)C[C@H](C)C(=O)O)cc2cc1NCCCOc1cc2cc(C(=O)C[C@H](C)C(=O)O)sc2cc1OC` [Example 74, (S)-4-(5-(3-((2-((S)-3-carboxybutanoyl)-6-methoxybenzo[b]thiophen-5-yl)amino)propoxy)-6-methoxybenzo[b]thiophen-2-yl)-2-methyl-4-oxobutanoic acid] are 4 nM, 6 nM and 16%.
The corresponding values for `COc1cc2sc(C(=O)CCC(=O)O)cc2cc1CCCNc1nc2cc(C(=O)CCC(=O)O)sc2cc1OC` [Example 75, 4-(5-((3-(2-(3-carboxypropanoyl)-6-methoxybenzo[b]thiophen-5-yl)propyl)amino)-6-methoxythieno[3,2-b]pyridin-2-yl)-4-oxobutanoic acid] are 139 nM, 691 nM and 63%.
